According to US8921577B2, “Cholecystokinin receptor ligands” (PNB Vesper Life Sciences Pvt. Ltd., priority 2012, dated 2014):

Key:
[1] = target: T1, CCKA receptor (Rattus norvegicus, UniProt P30551); assay: [125]I-CCK-8 receptor binding assay, CCKA (rat pancreas membranes); settings: for IC50: rat pancreas membranes, 125I-Bolton-Hunter labeled CCK 25 pM, pH 6.5, 2 hrs at RT, read-out: Binding affinity Activity CCK-A
T1 construct: Pancreatic membranes were prepared in a similar way described by Charpentier et al; from tissue; host or cells: rat pancreas membranes
T1 sequence (P30551 1-444): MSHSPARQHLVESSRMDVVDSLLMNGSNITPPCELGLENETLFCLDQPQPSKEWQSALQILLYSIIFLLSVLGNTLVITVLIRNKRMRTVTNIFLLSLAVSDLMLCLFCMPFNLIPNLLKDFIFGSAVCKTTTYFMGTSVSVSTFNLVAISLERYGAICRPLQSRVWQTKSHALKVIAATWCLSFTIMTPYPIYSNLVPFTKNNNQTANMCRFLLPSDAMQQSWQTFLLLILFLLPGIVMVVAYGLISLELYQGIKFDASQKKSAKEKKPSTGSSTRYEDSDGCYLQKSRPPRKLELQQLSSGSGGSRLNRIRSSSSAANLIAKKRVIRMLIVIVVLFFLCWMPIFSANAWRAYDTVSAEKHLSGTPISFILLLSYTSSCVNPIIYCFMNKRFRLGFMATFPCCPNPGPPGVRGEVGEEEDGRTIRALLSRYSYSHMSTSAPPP
Procedure: (§1) CCKA and CCKB receptor binding assays were performed using guinea pig cerebral cortex (CCKB) and rat pancreas (CCKA). Male guinea pig brain tissues were prepared according to the modified method described by Saita et al, [(1994), Eur. J. Pharmacol., 269, 249-254]. Pancreatic membranes were prepared in a similar way described by Charpentier et al, [(1988), Proc Natl Acad Sci USA, 85, 1968-1972]. Briefly, tissues were homogenized in ice cold sucrose (0.32 M, 25 ml) for 15 strokes at 500 rpm and centrifuged at 13000 rpm for 10 mins. The supernatant was re-centrifuged at 13000 rpm for 20 mins. The resulting pellet was re-dispersed to the required volume of buffer at 500 rpm and stored in aliquots at −70° C.
(§2) Binding was achieved using a radioligand ^125I-Bolton-Hunter labeled CCK, NEN at 25 pM. The samples were incubated {with membranes (0.1 mg/ml)} in 20 mM Hepes, 1 mM EGTA, 5 mM MgCl2, 150 mm NaCl, 0.25 mg/ml bacitracin at pH 6.5 for 2 hrs at RT and then […] by centrifugation at 1100 rpm for 5 minutes. The membrane pellets were washed twice with water and the bound radioactivity was measured in a Packard Cobra Auto-gamma counter (B5005). All binding assays were carried out with L-363, 260 as an internal non-specific standard. Controls (no compound) were also added. All samples were made in duplicate and repeated twice. All compounds were initially screened for percentage inhibition at 10 μm. Samples showing an average inhibition of >35% were diluted to 1 μm and re-screened and if active diluted again.

[2] = target: T2, CCKB receptor (Cavia porcellus, UniProt H0VZC5); assay: [125]I-CCK-8 receptor binding assay, CCKB (guinea pig cerebral cortex membranes); settings: for IC50: guinea pig cerebral cortex membranes, 125I-Bolton-Hunter labeled CCK 25 pM, pH 6.5, 2 hrs at RT, read-out: Binding affinity Activity CCK-B
T2 construct: Male guinea pig brain tissues were prepared according to the modified method described by Saita et al; from tissue; host or cells: male guinea pig cerebral cortex membranes
T2 sequence (H0VZC5 1-426): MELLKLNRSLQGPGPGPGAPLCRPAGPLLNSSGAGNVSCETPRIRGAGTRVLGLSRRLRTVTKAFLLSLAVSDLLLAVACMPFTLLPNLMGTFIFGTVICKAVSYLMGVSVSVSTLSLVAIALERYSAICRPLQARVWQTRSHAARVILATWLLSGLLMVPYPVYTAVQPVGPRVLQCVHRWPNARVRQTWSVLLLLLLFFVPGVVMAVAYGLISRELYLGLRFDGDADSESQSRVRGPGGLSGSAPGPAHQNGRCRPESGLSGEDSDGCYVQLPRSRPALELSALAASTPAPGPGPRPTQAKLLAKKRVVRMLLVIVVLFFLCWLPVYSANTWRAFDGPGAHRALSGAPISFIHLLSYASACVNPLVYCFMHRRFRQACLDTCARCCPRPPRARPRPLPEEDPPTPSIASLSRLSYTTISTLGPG
Procedure: as §1, §2

Structure (SMILES)	IC50 [1]	IC50 [2]	melting point	affinity towards the CCK B receptor (in words) ([2]; judgement in words)	CCK antagonist character (in words) ([1]; judgement in words on CCK-A and CCK-B binding)
O=C1C=C(Cl)C(O)(c2ccccc2)N1Cc1ccccc1 (stereo not drawn) [Example 9, 1-Benzyl-4-chloro-5-hydroxy-5-phenyl-1,5-dihydro-pyrrol-2-one]	> 10 µM	> 10 µM			
CCCCCCN1C(=O)C=C(Cl)C1(O)c1ccc(Cl)cc1 (stereo not drawn) [Example 16, 4-Chloro-5-(4-chloro-phenyl)-1-hexyl-5-hydroxy-1,5-dihydro-pyrrol-2-one]	> 10 µM	> 10 µM			
O=C1C=C(Cl)C(O)(c2ccccc2)N1C1CC1 (stereo not drawn) [Example 1, 4-Chloro-1-cyclopropyl-5-hydroxy-5-phenyl-1,5-dihydro-pyrrol-2-one]	2.5 µM	> 10 µM			
CN1C(=O)C=C(Cl)C1(O)c1ccc(Cl)cc1 (stereo not drawn) [Example 14, 4-Chloro-5-(4-chloro-phenyl)-5-hydroxy-1-methyl-1,5-dihydro-pyrrol-2-one]	> 10 µM	> 10 µM			
C[C@H](c1ccccc1)N1C(=O)C=C(Cl)C1(O)c1ccccc1 (single isomer, unassigned) [Example 10a]	> 10 µM	> 10 µM	162 to 164 °C		
CC(C)N1C(=O)C=C(Cl)C1(O)c1ccccc1 (stereo not drawn) [Example 3, 4-Chloro-5-hydroxy-1-isopropyl-5-phenyl-1,5-dihydro-pyrrol-2-one]	> 10 µM	> 10 µM			
O=C1C=C(Cl)C(O)(c2ccccc2)N1C1CCCC1 (stereo not drawn) [Example 7, 4-Chloro-1-cyclopentyl-5-hydroxy-5-phenyl-1,5-dihydro-pyrrol-2-one]	0.36 µM	0.84 µM			
CN1C(=O)C=C(Cl)C1(O)c1ccccc1 (stereo not drawn) [Example 4, 4-Chloro-5-hydroxy-1-methyl-5-phenyl-1,5-dihydro-pyrrol-2-one]	> 10 µM	> 10 µM			
O=C1C=C(Cl)C(O)(c2ccc(Cl)cc2)N1C1CC1 (stereo not drawn) [Example 12, 4-Chloro-5-(4-chloro-phenyl)-1-cyclopropyl-5-hydroxy-1,5-dihydro-pyrrol-2-one]	7.5 µM	> 10 µM			
Cc1ccc(N2C(=O)C=C(Cl)C2(O)c2ccccc2)cc1C (stereo not drawn) [Example 2, 4-Chloro-1-(3,4-dimethyl-phenyl)-5-hydroxy-5-phenyl-1,5-dihydro-pyrrol-2-one]	2 µM	> 10 µM	168 to 171 °C		
O=C1C=C(Cl)C(O)(c2ccc(Cl)cc2)N1C1CCCC1 (stereo not drawn) [Example 17, 4-Chloro-5-(4-chloro-phenyl)-1-cyclopentyl-5-hydroxy-1,5-dihydro-pyrrol-2-one]	2.5 µM	> 10 µM			
C[C@H](c1ccccc1)N1C(=O)C=C(Cl)C1(O)c1ccccc1 (single isomer, unassigned) [Example 10b]	> 10 µM	> 10 µM			
O=C1C=C(Cl)C(O)(c2ccccc2)N1CCc1ccccc1 (stereo not drawn) [Example 5, 4-Chloro-5-hydroxy-1-phenethyl-5-phenyl-1,5-dihydro-pyrrol-2-one]	0.02 µM	0.02 µM	155 to 158 °C		potent and mixed CCK antagonist

Results, then the compound that gave them:

IC50 [1]	IC50 [2]	melting point	affinity towards the CCK B receptor (in words) ([2]; judgement in words)	CCK antagonist character (in words) ([1]; judgement in words on CCK-A and CCK-B binding)	Structure (SMILES)
2.2 µM	> 10 µM	149 to 152 °C			O=C1C=C(Cl)C(O)(c2ccc(Cl)cc2)N1Cc1ccccc1 (stereo not drawn) [Example 19, 1-Benzyl-4-chloro-5-(4-chloro-phenyl)-5-hydroxy-1,5-dihydro-pyrrol-2-one]
> 10 µM	> 10 µM				O=C1C=C(Cl)C(O)(c2ccccc2)N1C1CCCCC1 (stereo not drawn) [Example 11, 4-Chloro-1-cyclohexyl-5-hydroxy-5-phenyl-1,5-dihydro-pyrrol-2-one]
> 10 µM	> 10 µM				CCCCCCN1C(=O)C=C(Cl)C1(O)c1ccccc1 (stereo not drawn) [Example 6, 4-Chloro-1-hexyl-5-hydroxy-5-phenyl-1,5-dihydro-pyrrol-2-one]
4.5 µM	0.01 µM		good affinity		CC(C)CN1C(=O)C=C(Cl)C1(O)c1ccccc1 (stereo not drawn) [Example 8, 4-Chloro-5-hydroxy-1-isobutyl-5-phenyl-1,5-dihydro-pyrrol-2-one]
0.002 µM	0.0015 µM	145 to 148 °C			O=C1C=C(Cl)C(O)(c2ccc(Cl)cc2)N1CCc1ccccc1 (stereo not drawn) [Example 15, 4-Chloro-5-(4-chloro-phenyl)-5-hydroxy-1-phenethyl-1,5-dihydro-pyrrol-2-one]
> 10 µM	> 10 µM				CC(C)N1C(=O)C=C(Cl)C1(O)c1ccc(Cl)cc1 (stereo not drawn) [Example 13, 4-Chloro-5-(4-chloro-phenyl)-5-hydroxy-1-isopropyl-1,5-dihydro-pyrrol-2-one]
